# In patent US12520840B2, “Method for reducing parasite burden in a mosquito” (PRESIDENT AND FELLOWS OF HARVARD COLLEGE, priority 2018, dated 2026):
# Entries after “also recorded” stand apart in the source; their conditions may differ.
# What was measured:
# P. falciparum = assay: Plasmodium falciparum infection assay in An. gambiae females after tarsal exposure to a compound-coated surface (oocyst prevalence and intensity); format: in vivo, Plasmodium falciparum (NF54) in Anopheles gambiae; details: for effect on prevalence of P. falciparum relative to controls / reduction of oocyst prevalence relative to controls: 1 mmol/m2, 6 minutes exposure
# Experimental: (§1) Compound Exposures. Compounds (ATQ, ACE, HYD, PYR, PER, Millipore-Sigma, St. Louis, MO, USA) to be tested were dissolved in a suitable, volatile vehicle (Table S1) at stock concentrations of 3-10 mg/ml (0.3-1% w/v). Working concentrations of each compound were created through serial dilutions. To generate a compound-coated surface, a volume of working solution containing a known quantity of compound was added to 1 ml excess vehicle and transferred to a 6 cm diameter glass petri dish ([…]). Treated dishes were placed on a lateral shaker and left for 4 h or overnight until evaporation of the volatile vehicle, coating the compound to the glass substrate. Control plates were treated identically using only the acetone vehicle. A translucent plastic cup was placed over the coated surface to contain mosquitoes during exposure. A flap was cut into the base of the cup to allow the introduction of mosquitoes. Plates were used for 1 d and discarded. For exposures, 15-25 mosquitoes were introduced through the cup flap using a mouth aspirator and incubated on the treated surface for 6-60 min depending on the experimental parameters. Exposure plates were agitated once during exposure to discourage resting on the untreated walls and base of the cup. After exposure, plates were transferred to a clean 17.5 cm^3 cage (Bugdorm™, Megaview Science. Co. Taiwan).
# Plasmodium falciparum Infection Assays. 5-d old An. gambiae females were exposed to compounds as described above. Immediately after exposure, females were transferred to a sealed, secure infection glovebox and provided an in vitro culture P. falciparum (NF54) gametocytes (1, 2) through a custom made, glass, water-heated membrane feeder. […] At 7-9 d post infectious blood meal (pIBM), females that had blood fed were vacuum aspirated into 80% ethanol, incubated for 10 minutes at −20° C., and transferred out of the secure feeding box into PBS on ice. Midguts were dissected out in PBS and stained with 0.2% w/v mercurochrome (in ddH2O) for 17 minutes. After staining, midguts were mounted on glass microscope slides in 0.02% w/v mercurochrome, and oocyst prevalence and intensity were determined by examination at 40× air objective on an inverted compound light microscope (Olympus Corporation, Waltham, MA).
# Statistical Analysis. All statistical analyses were carried out using GraphPad Prism v7.0 for MacOSX (GraphPad Software Inc., La Jolla CA, USA). For infections, differences in prevalence were analyzed by Chi^2. In experiments where both treatment groups had individuals that produced >0 oocysts, differences in median oocyst burden between groups (intensity of infection) was analyzed using a Mann-Whitney Mean Ranks test. For multiple comparisons (e.g. FIG. 3) differences in prevalence between multiple groups were determined using pair-wise Chi^2 corrected for multiple comparisons (Bonferroni). Similarly, multiple comparisons of intensity were carried out using Wilcoxon with Dunn's post hoc. To determine IC50 from dose-response data, the mean relative inhibition (ATQ exposed prevalence/Control prevalence) was calculated for each tested dose and fit with a sigmoidal curve function using non-linear regression.
# An. gambiae females = assay: Survival assays of An. gambiae females after compound exposure (acute 48 h and long-term); format: in vivo, Anopheles gambiae; details: for proportionate survival relative to controls: 1 mmol/m2, 60 minutes exposure, 48 h after exposure
# Experimental: as §1
# Survival Assays. To assess acute survival following exposure: 40, females were exposed (as described above) to ATQ, PYR, ACE, HYD permethrin (PER) for 1 h at a dosage of 1 mmol/m^2 for each compound. […] Immediately after exposure, each treatment group was transferred to a 500 ml paper cup and provided with glucose. At 48 h post exposure the proportion of surviving mosquitoes in each group was determined. Differences in survival between control and compound-exposed mosquitoes were detected using Chi^2 analysis. For long-term survival, ˜100 ATQ- or control-exposed females were placed in clean 17.5 cm^3 cages (Bugdorm™, Megaview Science. Co., Taiwan). Water and a 10% w/v glucose solution was provided ad libitum. Cages were checked daily for mortality, and dead mosquitos were removed and counted. Each experiment continued until all mosquitoes had died. Differences in median time-to-death between ATQ and control treatment groups were analyzed using a Log-Rank Mantell-Cox test.
# [1] = system: susceptible An. gambiae mosquitoes; details: 60-minute tarsal exposure; cited from earlier work
# [2] = 10 μmol/m^2, 60 minutes exposure
# [3] = 1 mmol/m2, 60 minutes exposure immediately prior to infection
smiles,measurement,setting,value
"O=C1C(O)=C([C@H]2CC[C@H](c3ccc(Cl)cc3)CC2)C(=O)c2ccccc21 [ATQ, atovaquone]",inhibition of intensity of infection compared to controls,P. falciparum; [2],87.5%
same,inhibition of prevalence of infection compared to controls,P. falciparum; [2],87.6%
same,oocyst intensity,"P. falciparum; 100 μmol/m2, 6 min exposure",0%
same,prevalence of infection (P. falciparum oocysts),"P. falciparum; 100 μmol/m2, 6 min exposure",0%
same,oocyst intensity,"P. falciparum; 1 mmol/m2, 6 min exposure",0%
same,prevalence of infection (P. falciparum oocysts),"P. falciparum; 1 mmol/m2, 6 min exposure",0%
same,oocyst intensity,P. falciparum; [3],0%
same,prevalence of infection (P. falciparum oocysts),P. falciparum; [3],0%
same,IC50 of pre-infection exposure (surface concentration; prevalence of infection),"P. falciparum; 60 minutes tarsal exposure, interpolated from dose-response curve",1.77 μmol/m^2
same,proportionate survival relative to controls,An. gambiae females,0.975
same,effect on acute or long-term survival of An. gambiae females,"An. gambiae females; ATQ- vs control-exposed females, followed until death",no effect
"CCCCCCCCCCCCC1=C(OC(C)=O)C(=O)c2ccccc2C1=O [ACE, acequinocyl]",effect on prevalence of P. falciparum relative to controls,P. falciparum,strongly reduced prevalence
same,reduction of oocyst prevalence relative to controls,P. falciparum,64.3%
same,proportionate survival relative to controls,An. gambiae females,1.059
"CC1(C)CNC(=NN=C(/C=C/c2ccc(C(F)(F)F)cc2)/C=C/c2ccc(C(F)(F)F)cc2)NC1 [HYD, hydramethylnon]",effect on prevalence of P. falciparum relative to controls,P. falciparum,strongly reduced prevalence
same,reduction of oocyst prevalence relative to controls,P. falciparum,63.9%
same,proportionate survival relative to controls,An. gambiae females,0.976
CC1(C)C(C=C(Cl)Cl)C1C(=O)OCc1cccc(Oc2ccccc2)c1 (stereo not shown) [permethrin],LC50,[1],63 μmol/m^2
same,proportionate survival relative to controls,An. gambiae females,0.055
"CCc1nc(N)nc(N)c1-c1ccc(Cl)cc1 [PYR, pyrimethamine]",proportionate survival relative to controls,An. gambiae females,1.000
"CCCCCCCCCCOc1cc2c(O)c(C(=O)OCC)cnc2cc1OCC [DEC, decoquinate]",effect on prevalence of P. falciparum relative to controls,P. falciparum,no detectable effect on infection; also recorded: Neither compound is capable of reducing the prevalence
same,proportionate survival relative to controls,An. gambiae females,1.084
